The source of these data is patent publication US20080009448A1, “Peptide Derivative” (priority 2006, published 2008).

The subject of assay [1] is heat nociceptive stimulation. The experiment in a line: Anti-nociceptive activity test, tail-flick method. Type of assay: in vivo, mouse. As for the experimental part: (1) Experimental animal, male ddy mice (Japan SLC), weighing the body weight in the range of 22 to 25 g, were used for the studies. The animals had been kept under constant conditions (room temperature 22±2° C., humidity 55±5%, 12 hours light-and-dark cycle having light time 9:00 to 21:00 and dark time 21:00 to 9:00) until used for an experiment. The animals were fed the mouse solid diet (F2, Funabashi farm. Funabashi, Japan) with unrestricted tap water intake.
SS8225-01, 02, 03 04, 05, 06, 07 and 08 as examples and SS8225-09, 10, 11 and 12 as comparison examples were used as the administered drugs. […] In addition only Liger solution was administered as an experimental control. The animals were left for 60 minutes in the plastic cage to become familiar to the environment prior to the test in which measured a latent time for each mouse before drug administration in accordance with a tail-flick method noted below. Heat was radiated to a part of each mouse tail which is 2 cm from the end of its tail. Each of heat radiation periods before beginning of tail-flick was measured as a false pain threshold. Mice which responded to the stimulation within 2.5 to 3.5 seconds were pre-selected for the test. Administration solution under one administration condition for one kind of drug was administered to one experimental animal group including 10 mice. After the body weight of each mouse was measured, each volume of the administration solution was adjusted to be 0.1 mL/10 g of mouse body weight and then the solution was administered. The administration methods were two methods of subcutaneous administration (s. c.) and oral administration (p. o.). On subcutaneous administration, the administration solution of 0.1 mL per 10 g of body weight (0.1 mL/10 g) was injected into the back of the mouse using 27 gauge needle. On oral administration, the administration solution of 0.1 mL per 10 g of body weight (0.1 mL/10 g) was administered using an oral sonde.
Heat was radiated to a part of each mouse's tail of respective experimental group, which is 2 cm from the end of its tail, at 15, 30 and 60 minutes after the drug administration according to the preset measurement interval and a latent time until respective mouse swung its tail was measured as a false pain threshold value. The maximum stimulation period (cut-off-time) was set as 10 seconds to minimize the damage to the stimulation part. The anti-nociceptive effect was evaluated quantitatively by calculating % MPE (% of maximum possible effect) according to the following formula. [formula] T1: A latent time until beginning of tail-flick before respective drug administration (seconds) T2: A latent time until beginning of tail-flick after respective drug administration (seconds) Tc: A maximum stimulation period (cut-off-time)
The graphs (FIG. 1, FIG. 3, FIG. 5, FIG. 7, FIG. 9, FIG. 11, FIG. 13, FIG. 15, FIG. 17, FIG. 19, FIG. 21, FIG. 23, FIG. 25, FIG. 27, FIG. 29, FIG. 31, FIG. 33 and FIG. 35) showing a time-course variation of % MPE were created, in which a vertical axis is an average value with a standard error (means ±S. E. M.) obtained by calculation of % MPE of respective animals of 10 mice every administration condition of respective drugs and a horizontal axis is a time after administration. After treating % MPE data of each animal of experimental groups with respective doses and % MPE data of each animal of the experimental group with a control Ringer's solution at the same measurement time every drugs using the two-way layout dispersion analysis (two-way ANOVA), the hazard-ratio of P<0.05 was decided to be a significant difference according to Bonferroni post-test.
A lasting time of anti-nociceptive activity of each drug in the present description is the lasting time of anti-nociceptive activity under the dose condition providing the longest lasting time.
ED50 is represented in the unit of mg/Kg.
(In hot-plate and tail-flick tests a longer latency is read as antinociception.)

The test system of assay [2] is MSU induced knee osteoarthritis pain. Kind of assay: MSU induced knee osteoarthritis pain model, hind leg paw-pressure ratio. On the set-up: key to AUC of time-course variation of anti-nociceptive activity: AUC of the time course of anti-nociceptive activity as % MPE. The note with it: for activity lasting-time: orally administered. Type of assay: in vivo, rat. How it is done:
Experimental animal, male SD type rats, weighing the body weight in the range of 170 to 190 g, were used for the studies. The animals had been kept under constant conditions (room temperature 23±1° C., humidity 52±2%, 12 hours light-and-dark cycle having light time 7:00 to 19:00 and dark time 19:00 to 7:00) until used for an experiment. The animals were fed the mouse solid diet (F2, Funabashi farm. Funabashi, Japan) with unrestricted tap water intake, and kept in captivity for at least more than two days in a laboratory.
Any test drugs were dissolved in Ringer's solution (Fuso Yakuhin) to be used.
MSU was suspended with the suspension solution (10% of polyoxyethylene sorbitan mono-oleate (Tween 80: Nakarai Tesk) as 0.1 g per 1 mL. The animal was anesthetized with diethyl ether and after the surface of its left hind leg knee joint was wiped with 70% ethanol cotton, a porous administration of the suspension solution above noted was conducted into the cavity of let hind leg knee joint.
Pressures to both hind leg paw were measured using a paw-pressure measurement apparatus and recorded. Measurement time at respective times was 4.5 seconds. Calculated paw-pressure ratio (ppr) is a value calculated by dividing the pressure on the left hind leg by the pressure on the right hind leg according to the measured pressures on both hind legs.
The anti-nociceptive effect was evaluated quantitatively by calculating % MPE (% of maximum possible effect) according to the following formula. [formula]
In the formula, ppr 0 and ppr 1 are respective paw-pressure ratios on both hind legs before and after administration. ED50 value of anti-nociceptive activity was calculated using GraphPad Prism data-graph processing software version 4.0, San Diego, Calif., USA.
The strength of anti-nociceptive activity was represented by calculating the time-course variation of anti-nociceptive activity AUC using GraphPad Prism noted above.
Paw-pressure was measured twice at 4 hours after administration to provide ppr by calculation and the average of those values was both hind leg paw-pressure ratio before the drug administration. After the measurement of both hind leg paw-pressure before the drug administration, 0.1 mL of Ringer's solution or a test drug in Ringer's solution per 100 g rat body weight was orally administered, and then a paw-pressure was measured once every unit time after the oral administration.
Statistical processing was conducted using GraphPad Prism. After the two-way layout dispersion analysis, the hazard-ratio of P<0.05 was decided to be a significant difference according to Bonferroni post-test. The hazard-ratios were distinguished into less than 5% (P<0.05) and less than 1% (P<0.01) and represented as “*” and “**” in the same manner conducted for the Tail-flick method.

The mark [3] stands for this setting: mice, p.o., at activity-peak time, parentheses = 95% confidence limit.
The mark [4] stands for this setting: mice, s.c., at activity-peak time, parentheses = 95% confidence limit.
[5] abbreviates: rat, MSU knee model, oral 15 mg/kg.
[6] abbreviates: rat, MSU knee model, oral 30 mg/kg.

For the molecule `CN1CC[C@]23c4c5ccc(O)c4O[C@H]2[C@@H](O)C=C[C@H]3[C@H]1C5` [Morphine], the ED50 came to 29.9 mg/kg in assay [1] (Mus musculus, po, mice, p.o., at activity-peak time, parentheses = 95% confidence limit, read-out: Oral ED50) and 37.2 mg/kg in assay [2] (rat, MSU knee model, oral, %MPE, range in parentheses, read-out: ED50 value at activity peak). The “activity-peak time after the oral administration” value in assay [1] (mice, p.o.) worked out at 45 min. The “Oral ED50” value in assay [1] (setting [3]) was 29.9 (26.37-33.95) mg/Kg. In assay [1] (mice, s.c.), the “activity-peak time after the subcutaneous administration” value was found to be 30 min. In addition, in assay [1] (setting [4]), the “Subcutaneous ED50” value amounted to 2.51 mg/kg. For the same molecule, the “lasting time of anti-nociceptive activity” value in assay [1] (p.o., dose of 67.5 mg/Kg) was 5 h; in assay [1] (s.c., dose of 5 mg/Kg), 1.5 h. Also, in assay [2] (rat, MSU knee model, oral), the activity peak came out at 90 min. In addition, the “AUC of time-course variation of anti-nociceptive activity” value in assay [2] (setting [5]) is on record as 1724; in assay [2] (setting [6]) it was 4485; in assay [2] (rat, MSU knee model, oral 60 mg/kg) it was 13883. Also, in assay [2] (rat, MSU knee model), the activity lasting-time worked out at 300 min.
Consider “Iminoethyl-[Tyr]-[D-Met(O)]-[Phe]-[N-MeβAla]-NHCH3 [SS8225-07]”, for which the “dosage providing the same AUC, as part of morphine dosage” value in assay [1] (AUC of %MPE vs time, either oral or subcutaneous administration (FIG. 37, 38)) was “a half through one fiftieth”. Further, in assay [1] (mice, p.o.), the “activity-peak time after the oral administration” value worked out at 180 min. In assay [1] (setting [3]), the “Oral ED50” value came out at 2.51 mg/kg. In addition, in assay [1] (mice, s.c.), the “activity-peak time after the subcutaneous administration” value was found to be 60 min. Further, the “Subcutaneous ED50” value in assay [1] (setting [4]) was 0.05 mg/kg. For the same molecule, the “lasting time of anti-nociceptive activity” value came out at 8 h in assay [1] (p.o., dose of 10 mg/Kg) and 5 h in assay [1] (s.c., dose of 0.125 mg/Kg). For the same molecule, in assay [2] (knee osteoarthritis model, FIGS. 77 and 78), the “anti-nociceptive activity compared with morphine and oxycodone” value was “stronger than morphine, and stronger than or equal to oxycodone”. Further, the “activity lasting-time, times longer than for morphine” value in assay [2] (rat, MSU knee model, oral) was determined as 1.2 times. Further, in assay [2] (rat, MSU knee model, oral), the activity peak worked out at 120 min. Moreover, the “AUC of time-course variation of anti-nociceptive activity” value in assay [2] (rat, MSU knee model, oral 7.5 mg/kg) worked out at 2919; in assay [2] (setting [5]) it was 7894; in assay [2] (setting [6]), 20162. Further, the “ED50 value at activity peak” value in assay [2] (rat, MSU knee model, oral, %MPE, range in parentheses) is given as 16.95 (3.17-90.59) mg/Kg. Also, in assay [2] (rat, MSU knee model, oral, from ED50 of AUCs), the “anti-nociceptive activities, times stronger than for morphine” value was approximately 2.1 times. In addition, the “ED50 of AUCs” value in assay [2] (rat, MSU knee model, oral, range in parentheses) was 40.38 (31.08-52.48) mg/kg. Moreover, the “anti-nociceptive activity lasting-times, times longer than for morphine” value in assay [2] (rat, MSU knee model, oral, stated after ED50 at activity peak) turned out to be 2.2 times. Moreover, the activity lasting-time in assay [2] (rat, MSU knee model) was 360 min.

One may read the ED50 as the dose that gives a 50% effect, or the effect in half of the subjects.
